In patent US5554620A, “Substituted 6,11-ethano-6,11-dihydrobenzo[b] quinolizinium salts and compositions and methods of use thereof” (Sterling Winthrop Inc., priority 1994, dated 1996):

Target: PCP receptor
Assay: [3H]TCP radioreceptor assay (binding to PCP recognition sites)
Parameters: species or system rat (male Sprague-Dawley, whole brain)
Settings: [3H]TCP approx. 1 nM, rat brain membranes; mean of at least two determinations
Protocol: [^3 H]TCP Radioreceptor Assay
[^3 H]TCP binding to PCP recognition sites was performed as described by Vignon et al. Brain Research 1983, 280, 194-197. Male Sprague-Dawley rats were sacrificed by decapitation, and whole brains were homogenized in 10 volumes (wt/vol) of cold Tris-HCl buffer (50 mM, pH 7.7) using a Brinkmann Polytron (setting 6, 30 sec). The homogenate was centrifuged at 40,000×g for 10 min at 4° C. The supernatant was decanted, and the homogenization and centrifugation steps were repeated twice as described above. Following this, the pellet was resuspended in Tris-HCl (5 mM, pH 7.7) at a tissue concentration of 0.5-0.75 g/mL, and one mL aliquots were frozen at -70° C. until use. The binding characteristics for PCP recognition sites were not altered by the freezing of membrane suspensions.
On the day of the assay, membrane aliquots were thawed, resuspended in fresh 5 mM Tris-HCl buffer at a tissue concentration of 1 mg/mL, and stored on ice until use. Each assay tube contained 100 μl of [^3 H]TCP at a final concentration of approximately 1 nM, 100 μL of various concentrations of the compounds of interest, 500 μL of the tissue suspension and 300 μL of buffer to a final assay volume of 1 mL and a final protein concentration of 0.5 mg/tube. Non-specific binding was defined by addition of a final concentration of 100 μM PCP to blank tubes. All tubes were incubated at room temperature for 25 min before termination of the reaction by rapid filtration over Whatman GF/B glass fiber filters that had been presoaked in a solution of 0.5% polyethylenimine for at least 1 hr prior to use. Filters were washed with three 4 mL volumes of cold Tris buffer. Following addition of scintillation cocktail, the amount of bound radioactivity was determined by liquid scintillation spectrometry using a Beckman LS 5000TA liquid scintillation counter with an efficiency for tritium of approximately 55%. Inhibition constants (Ki values) were calculated using the EBDA/LIGAND program (McPherson, J. Pharmacol. Meth. 1985, 14, 213-228), purchased from ElsevierBiosoft, Inc. Results are reported as the Ki values (in nM) which are expressed as the mean of at least two separate determinations; or as a percent (%) inhibition of binding at 10 μM.

Point of comparison: `COc1cccc2c1C1c3cccc[n+]3C2CC1(c1ccccc1)c1ccccc1.[O-][Cl+3]([O-])([O-])[O-]` (stereo not drawn) [25(c), 6,11-ethano-12,12-diphenyl-10-methoxy-6,11-dihydrobenzo[b]quinolizinium perchlorate], Ki 39.3 nM. Against it:
- 6,11-ethano-12,12-di(3-furyl)-10-stearyloxy-6,11-dihydrobenzo[b]quinolizinium chloride [Example 163] — 5.2-fold lower, 7.54 nM
- COc1cccc2c1C1c3cccc[n+]3C2(C)CC1(c1ccccc1)c1ccccc1 (stereo not drawn) [37(E), 6,11-ethano-12,12-diphenyl-10-methoxy-6-methyl-6,11-dihydrobenzo[b]quinolizinium chloride] — within 1.5-fold, 36.7 nM
- Clc1cccc2[n+]1C1CC(c3ccoc3)(c3ccoc3)C2c2ccccc21.[O-][Cl+3]([O-])([O-])[O-] (stereo not drawn) [192(g), 6,11-ethano-12,12-di(3-furyl)-4-chloro-6,11-dihydrobenzo[b]-quinolizinium perchlorate] — 16-fold higher, 633 nM
- c1ccc2c(c1)CC1C3c4ccccc4C(c4cccc[n+]43)C21c1ccoc1 (stereo not drawn) [6(c), 6,11[[2',3']-3'-(3-furyl)-indanyl]6,11-dihydrobenzo[b]quinolizinium hexafluorophosphate] — 33-fold lower, 1.19 nM
- Oc1ccc2c(c1)C1c3cccc[n+]3C2CC1(c1ccccc1)c1ccccc1 (stereo not drawn) [34(b), 6,11-ethano-12,12-diphenyl-9-hydroxy-6,11-dihydrobenzo[b]quinolizinium chloride] — 1.8-fold lower, 21.9 nM
- COc1ccc2c(c1)C1c3cccc[n+]3C2CC1(c1ccccc1)c1ccccc1 (stereo not drawn) [27(E), 6,11-ethano-12,12-diphenyl-9-methoxy-6,111-dihydrobenzo[b]quinolizinium chloride 1/2 hydrate] — 3.8-fold lower, 10.4 nM
- COc1cccc(C23c4ccccc4CC2C2c4ccccc4C3c3cccc[n+]32)c1 (stereo not drawn) [5(c), 6.11[[2',3']-3'-(3-methoxyphenyl)-indanyl]6,11-dihydrobenzo[b]quinolizinium hexafluorophosphate] — 3-fold lower, 13.3 nM
- CCOC(=O)CCC(=O)Oc1cccc2c1C1c3cccc[n+]3C2CC1(c1ccoc1)c1ccoc1 (stereo not drawn) [Example 166, 6,11-ethano-12,12-di(3-furyl)-10-(3-ethoxycarbonyl)propionyloxy-6,11-dihydrobenzo-[b]quinolizinium chloride] — 1.6-fold higher, 61.1 nM
- c1ccc(C2(c3ccccn3)CC3c4ccccc4C2c2cccc[n+]23)nc1 (stereo not drawn) [24(b), 6,11-ethano-12,12-di-(2-pyridyl)-6,11-dihydrobenzo[b]quinolizinium chloride hydrate] — 4.7-fold lower, 8.39 nM
- Fc1ccc2c(c1)C1c3cccc[n+]3C2CC1(c1cc[nH]n1)c1cc[nH]n1 (stereo not drawn) [198(b), 6,11-ethano-12,12-di-(pyrazol-3-yl)]-9-fluoro-6,11-dihydrobenzo-[b]quinolizinium chloride] — 3.4-fold lower, 11.7 nM
- CCOC12c3ccoc3CCC1C1c3ccccc3C2c2cccc[n+]21 (stereo not drawn) [9(b), 6,11[[5',4!]-4'-ethoxy-4',5',6',7'-tetrahydrobenzofuryl]-6,11-dihydrobenzo[b]quinolizinium hexafluorophosphate] — 6.7-fold lower, 5.9 nM
- Oc1cccc2c1C1c3cccc[n+]3C2CC1(c1ccoc1)c1ccn[nH]1 (stereo not drawn) [Example 200, 6,11-ethano-12-(3-furyl)-12-(pyrazol-5-yl)-10-hydroxy-6,11-dihydro-benzo[b]quinolizinium chloride] — 3.4-fold lower, 11.5 nM
- COc1cccc(C2(c3cccc(OC)c3)CC3c4ccccc4C2c2cccc[n+]23)c1 (stereo not drawn) [35(c), 6,11-ethano-12,12-di(m-methoxyphenyl)-6,11-dihydrobenzo[b]quinolizinium chloride] — within 1.5-fold, 41 nM
- c1ccc(C23c4ccccc4CC2C2c4ccccc4C3c3cccc[n+]32)cc1 (stereo not drawn) [Example 1F, 6,11[[2',3']-3'-phenyl-indanyl]6,11-dihydrobenzo[b]quinolizinium hexafluorophosphate] — 5.2-fold lower, 7.58 nM
- c1ccc2c(c1)C1CC(c3nccs3)(c3nccs3)C2c2cccc[n+]21 (stereo not drawn) [61(c), 6,11-ethao-12,12-di(2-thiazolyl)-6,11-dihydrobenzo[b]quinolizinium perchlorate] — 2.3-fold lower, 17 nM
- c1ccc2c(c1)C1C3CCc4occc4C3(c3cc4ccccc4o3)C2c2cccc[n+]21 (stereo not drawn) [10(c-G), 6,11[[5',4']-4'-(2-benzofuryl)-4',5',6',7'-tetrahydrobenzofuryl]6,11-dihydrobenzo[b]quinolizinium hexafluorophosphate] — 110-fold higher, 4450 nM
- Brc1cc2cn[nH]c2c2cc3cccc[n+]3cc12 [186(g), 7-bromo-9,10-pyrazolo-benzo[b]quinolizinium hexafluorophosphate] — 3.1-fold higher, 122 nM
- FC(F)(F)c1ccc2c(c1)C1c3cccc[n+]3C2CC1(c1ccccc1)c1ccccc1 (stereo not drawn) [45(E), 6,11-ethano-12,12-diphenyl-9-trifluoromethyl-6,11-dihydrobenzo[b]quinolizinium chloride 1/4 hydrate] — 12-fold higher, 491 nM
- c1ccc2c(c1)C1C3CCc4occc4C3(c3ccoc3)C2c2cccc[n+]21 (stereo not drawn) [7(c), 6,11-[5',4"]-4'-(3-furyl)-4',5',6',7'-tetrahydrobenzofuryl]-6,11-dihydrobenzo[b]quinolizinium chloride] — 36-fold lower, 1.1 nM
- CC12CC(c3ccccc3)(c3ccccc3)C(c3ccccc31)c1cccc[n+]12 (single isomer, unassigned) [20(h), 6,11-ethano-12,12-diphenyl-6-methyl-6,11-dihydrobenzo[b]quinolizinium chloride 1/2 hydrate] — 5.5-fold lower, 7.15 nM
- COc1ccc(C2(c3ccc(OC)cc3)CC3c4ccccc4C2c2cccc[n+]23)cc1 (stereo not drawn) [44(b), 6,11-ethano-12,12-di(p-methoxyphenyl)-6,11-dihydrobenzo[b]quinolizinium hexafluorophosphate] — 720-fold higher, 28100 nM
- C=C1C2c3ccccc3C(c3cccc[n+]32)C1(c1ccoc1)c1ccoc1 (stereo not drawn) [162(d), 6,11-ethano-12,12-di(3-furyl)-13-methylene-6,11-dihydrobenzo[b]quinolizinium hexafluorophosphate] — 17-fold lower, 2.31 nM
- CC(=O)Oc1ccc[n+]2c1C1c3ccccc3C2CC1(c1ccoc1)c1ccoc1 (stereo not drawn) [Example 170, 6,11-ethano-12,12-di(3-furyl)-1-acetyloxy-6,11-dihydrobenzo-[b]quinolizinium chloride] — 5.9-fold higher, 232 nM
- Cc1noc2c1CCC1C3c4ccccc4C(c4cccc[n+]43)C21c1ccoc1 (stereo not drawn) [8(c), 6,11[[6',7']-7'-(3-furyl)-3'-methyl-4',5',6',7'-tetrahydrobenzisoxazol]6,11-dihydrobenzo[b]quinolizinium hexafluorophosphate] — 3-fold higher, 117 nM
- c1ccc2c(c1)CC1C2C2c3ccccc3C1[n+]1ccccc12 (single isomer, unassigned) [Example 2(a), 6,11[[2',3']-indanyl]6,11-dihydrobenzo[b]quinolizinium chloride] — 3.1-fold higher, 123 nM
- c1ccc2c(c1)C1CC(c3cn[nH]c3)(c3cn[nH]c3)C2c2cccc[n+]21 (stereo not drawn) [161(d), 6,11-ethano-12,12-di(pyrazol-4-yl)]-6,11-dihydrobenzo[b]quinolizinium perchlorate] — 94-fold higher, 3680 nM
- Clc1ccc2c(c1)C1c3cccc[n+]3C2CC1(c1ccn[nH]1)c1ccn[nH]1 (stereo not drawn) [189(b), 6,11-ethano-12,12-di-(pyrazol-5-yl)]-9-chloro-6,11-dihydrobenzo[b]quinolizinium perchlorate] — 1.7-fold lower, 22.5 nM
- CC12CC(c3ccccc3)(c3ccccc3)C(c3c(O)cccc31)c1cccc[n+]12 (stereo not drawn) [38(c), 6,11-ethano-12,12-diphenyl-10-hydroxy-6-methyl-6,11-dihydrobenzo[b]quinolizinium chloride] — 2.4-fold lower, 16.6 nM
- COC(=O)C12CC(c3ccoc3)(c3ccoc3)C(c3ccccc31)c1cccc[n+]12 (stereo not drawn) [176(d), 6,11-ethano-12,12-di(3-furyl)-6-methoxycarbonyl-6,11-dihydrobenzo[b]quinolizinium chloride] — within 1.5-fold, 39.4 nM

Same assay, conditions: inhibition of [3H]TCP binding at 10 μM

Point of comparison: `Cc1ccc(S(=O)(=O)n2nccc2C2(c3ccoc3)CC3c4cccc(O)c4C2c2cccc[n+]23)cc1` (single isomer, unassigned) [Example 199(a), 6,11-ethano-12-(3-furyl)-12-[1-(p-toluenesulfon-yl)-pyrazol-5-yl]-10-hydroxy-6,11-dihydrobenzo[b]quinolizinium perchlorate], “[3H]TCP percent inhibition @ 10 μm” value 27%. Against it:
- c1ccc2c(c1)C1CC(c3nc[nH]n3)(c3nc[nH]n3)C2c2cccc[n+]21 (stereo not drawn) [159(h), 6,11-ethano-12,12-di-[3-(1,2,4-triazolyl)]-6,11-dihydrobenzo[b]quinolizinium chloride] — higher, 31%
- Clc1ccc(C2(c3ccc(Cl)cc3)CC3c4ccccc4C2c2cccc[n+]23)cc1.F[P-](F)(F)(F)(F)F (stereo not drawn) [43(b), 6,11-ethano-12,12-di(p-chlorophenyl)-6,11-dihydrobenzo[b]quinolizinium hexafluorophosphate] — higher, 45%
